According to article PMC11679033, “Assessing the Potential Synergistic/Antagonistic Effects of Citrinin and Cannabidiol on SH-SY5Y, HepG2, HEK293 Cell Lines, and Human Lymphocytes” (Toxins, 2024):
Marks after values point to notes of the source that are not given here.

How the values were obtained:
[1] = tested on: human peripheral blood lymphocytes; assay: Alkaline comet assay; type: cell-based; settings: 24 h; CIT 30 µM, CBD 1 µM, bleomycin 1.25 µg/mL
Method: (§1) The experimental design included the establishment of lymphocyte cultures, and the 24 h treatments with the test compounds, performed according to the last OECD recommendations, given in the Test Guideline No. 487—In Vitro Mammalian Cell Micronucleus Test.
(§2) The selection of specific concentrations of test compounds adhered to the guidelines for in vitro genotoxicity testing using comet assay. […] Solutions used in testing were prepared just prior to treatment by dissolving the test compounds in ethanol (Kemika, Zagreb, Croatia).
(§3) Two independent trials, with six experimental groups each, were conducted. A total of six replicate cultures for every single experimental group were established. This step was carried out as follows: aliquots of heparinized blood (V = 600 μL per culture) were pipetted into a growth medium RPMI-1640 (Gibco, Grand Island, NY, USA) supplemented with 10% fetal calf serum (Gibco, Grand Island, NY, USA) and antibiotics (penicillin and streptomycin; Sigma-Aldrich, Steinheim, Germany). Lymphocytes were stimulated with a mitogen phytohemagglutinin (Remel, Lenexa, KS, USA) in order to induce cell division prior to exposure to the test chemicals. Cultures were maintained in the humidified atmosphere of 5% CO2 at 37 °C (Heraeus Hera Cell 240 incubator; Langenselbold, Germany).
(§4) Negative controls (NCs) were non-treated lymphocytes. Solvent controls (SCs) were lymphocytes treated with ethanol (its final concentration in the culture corresponded to 0.03%). Positive controls (PCs) were lymphocytes treated for 24 h with bleomycin at 1.25 µg/mL (according to [69]). The other three groups were lymphocytes exposed to single CIT, single CBD, and their combination (CIT + CBD, at the same concentrations).
(§5) Treatments with test compounds started 20 h after the initial establishment of the cell cultures and lasted for 24 h. Upon completion of the exposure, aliquots of 100 µL of the treated cultures were pipetted in sterile conditions and used to prepare microgels for the alkaline comet assay. The remaining content of flasks was further processed using Cytokinesis-Block Micronucleus Cytome (CBMN Cyt) Assay.

[2] = tested on: human peripheral blood lymphocytes; assay: Cytokinesis-Block Micronucleus Cytome (CBMN Cyt) Assay; settings: 24 h, citrinin 30 µM, CBD 1 µM, bleomycin 1.25 µg/mL
Method: as §1, §2, §3, §4, §5
CBMN Cyt Assay was performed according to standard protocols proposed for micronucleus assay. Upon completion of the exposure, lymphocyte cultures were subjected to centrifugation at 100× g using a benchtop centrifuge (ROTOFIX 32A, Hettich, Tuttlingen, Germany). During this process, cells settled to the bottom of the tube. The growth medium with tested compounds was removed by pipetting, discarded and replaced with a fresh amount of complete growth medium RPMI-1640 that contained Cytochalasin B (cytoB; Sigma-Aldrich, Steinheim, Germany) at a final concentration of 6 µg/mL. This procedure was timed to the 44th hour of lymphocyte cultivation, as that time is a critical point for the addition of cytoB to inhibit cytokinesis and obtain binucleated cells. All treated and control cultures were further maintained in the previously described conditions at 37 °C until the end of the 72nd hour of cultivation, as proposed by protocols. Then, the preparation of microscopic slides started, which included harvesting of cells by centrifugation (100× g, ROTOFIX 32A centrifuge, Hettich, Tuttlingen, Germany), followed by hypotonic treatment (0.075 mol/L KCl; Kemika, Zagreb, Croatia), and a new round of centrifugation. The resulting sediments of cells were fixed in several repeating stages with methanol–acetic acid (3:1 v/v; both obtained from Kemika, Zagreb, Croatia) followed by centrifugation. The final lymphocyte suspension was dropped onto clean microscope slides.

[3] = tested on: human peripheral blood lymphocytes; assay: Lymphocyte proliferation / cytotoxicity (CBPI, RI); type: cell-based; settings: 24 h, citrinin 7.50 µg/mL, CBD 3.15 µg/mL, bleomycin 1.25 µg/mL
Source text: On the same slides, parameters of cell proliferation, cytostasis and cytotoxicity were studied, according to recommendations by OECD 2023 [67]. For that purpose, the numbers of mono-, bi-, tri-, and quadrinuclear cells (i.e., M1, M2, M3, M4) were scored at 400× magnification using a light microscope (Leitz, Oberkochen, Germany). The total number of M1 to M4 cells counted per experimental group was 3000 (i.e., 6 × 500 cells).
Based on the scored ratios of M1 to M4 cells, the Cytokinesis-Block Proliferation Index (CBPI) was calculated, using the formula: CBPI = [(No. of mononucleated cells) + (2 × No. of binucleated cells) + (3 × No. of multinucleated cells)]/(Total number of cells).
To establish the relative number of cell cycles per cell during the period of exposure to cytoB in treated compared to control cultures, the Replication Index (RI) was also calculated according to the formula:RI = {[(<No. binucleated cells> + <2 × No. multinucleated cells>)/(Total number of cells in treated culture)]/[(<No. binucleated cells> + <2 × No. multinucleated cells>) […] (Total number of cells in control culture)]} × 100
Finally, from the obtained values of RI, the cytotoxicity estimate was deduced, as % Cytotoxicity = […].

bleomycin [Positive Control] was tested, and the “tail intensity, mean value ± SE” value [1] was 14.81 ± 0.59%, the “Distribution of BNMN Cells with 1 MN” value ([2]; in 6000 BN cells) was 99 ^a,b,c,d,e and the “Distribution of BNMN Cells with 2 MNi” value ([2]; in 6000 BN cells) was 20 ^a,b,c,d,e. For the same substance, the “Distribution of BNMN Cells with 3 MNi” value ([2]; in 6000 BN cells) was 3, the “Distribution of BNNB Cells with 1 NB” value ([2]; in 6000 BN cells) was 85 ^a,b,c,d,e and the “Distribution of BNNB Cells with 2 NBs” value ([2]; in 6000 BN cells) was 12 ^a,b,c,d,e. The “Micronuclei (MNi) and BNMN Cells: Total (BNNB)6000” value ([2]; in 6000 BN cells) was 122 ^a,b,c,d,e, the “Micronuclei (MNi) and BNMN Cells: Total (MNi)6000” value ([2]; in 6000 BN cells) was 148 ^a,b,c,d,e and the “Nuclear Buds (NBs) and BNNB Cells: Total (BNNB)6000” value ([2]; in 6000 BN cells) was 97 ^a,b,c,d,e. For the same substance, the “Nuclear Buds (NBs) and BNNB Cells: Total (NBs)6000” value ([2]; in 6000 BN cells) was 109 ^a,b,c,d,e, the “Nucleoplasmic Bridges (NPBs) and BNNPB Cells: Total (BNNPB)6000” value ([2]; in 6000 BN cells) was 9 ^a,b,c,d,e and the “Nucleoplasmic Bridges (NPBs) and BNNPB Cells: Total (NPBs)6000” value ([2]; in 6000 BN cells) was 9 ^a,b,c,d,e. For the same substance, the “Cell Death: Total (Apoptosis)6000” value ([2]; in 6000 cells) was 94 ^a,b,c,d,e, the “Cell Death: Total (Necrosis)6000” value ([2]; in 6000 cells) was 71 ^a,b,c,d,e and the “Micronuclei (MNi) and BNMN Cells: Mean (BNMN)1000 ± SD” value ([2]; per 1000 BN cells) was 20.3 ± 2.9 ^a,b,c,d,e. The “Micronuclei (MNi) and BNMN Cells: Mean (MNi)1000 ± SD” value ([2]; per 1000 BN cells) was 24.7 ± 2.5 ^a,b,c,d,e, the “Nuclear Buds (NBs) and BNNB Cells: Mean (BNNB)1000 ± SD” value ([2]; per 1000 BN cells) was 16.2 ± 5.0 ^a,b,c,d,e and the “Nuclear Buds (NBs) and BNNB Cells: Mean (NBs)1000 ± SD” value ([2]; per 1000 BN cells) was 18.2 ± 6.5 ^a,b,c,d,e. The “Nucleoplasmic Bridges (NPBs) and BNNPB Cells: Mean (BNNPB)1000 ± SD” value ([2]; per 1000 BN cells) was 1.5 ± 0.8 ^a,b,c,d,e, the “Nucleoplasmic Bridges (NPBs) and BNNPB Cells: Mean (NPBs)1000 ± SD” value ([2]; per 1000 BN cells) was 1.5 ± 0.8 ^a,b,c,d,e and the “Cell Death: Mean (Apoptosis)1000 ± SD” value ([2]; per 1000 cells) was 15.7 ± 5.6 ^a,b,c,d,e. The “Cell Death: Mean (Necrosis)1000 ± SD” value ([2]; per 1000 cells) was 11.8 ± 3.6 ^a,b,c,d,e, the “Cytokinesis-Block Proliferation Index” value ([3]; 3000 cells scored) was 1.60^↓nc, sc, cit, cbd,& and the “Cytotoxicity (%)” value ([3]; deduced from RI) was 41.25%. The “Replication Index (%)” value ([3]; relative to negative control) was 58.75%.
